# Test results as given in patent US11267800B2, “Cyclohexyl acid triazole azines as LPA antagonists” (BRISTOL-MYERS SQUIBB COMPANY, priority 2017, dated 2022).
# pIC50: −log10 of the molar value.
# Biological target: T1, human LPA1 (Homo sapiens, UniProt Q92633)
# T1 construct: expressed in transfected cells; host or cells: Chinese hamster ovary (CHO) cells
# Experiment: LPA1 functional antagonist assay (calcium flux)
# Type: cell-based
# Conditions: CHO cells overexpressing human LPA1; inhibition of calcium flux induced by 10 nM LPA; read-out: hLPA1 IC50
# Method in brief: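 IC50 values come from 4-parameter logistic fits and mark 50% block of the calcium flux evoked by 10 nM LPA. Human LPA1-overexpressing CHO cells were calcium-dye loaded at 37 °C, then given test compound (0.08 nM–5 μM, 0.5% DMSO, HEPES-buffered HBSS with 0.1% fatty-acid-free BSA) for 20 min at room temperature before agonist.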
# T1 sequence (Q92633 whole entry): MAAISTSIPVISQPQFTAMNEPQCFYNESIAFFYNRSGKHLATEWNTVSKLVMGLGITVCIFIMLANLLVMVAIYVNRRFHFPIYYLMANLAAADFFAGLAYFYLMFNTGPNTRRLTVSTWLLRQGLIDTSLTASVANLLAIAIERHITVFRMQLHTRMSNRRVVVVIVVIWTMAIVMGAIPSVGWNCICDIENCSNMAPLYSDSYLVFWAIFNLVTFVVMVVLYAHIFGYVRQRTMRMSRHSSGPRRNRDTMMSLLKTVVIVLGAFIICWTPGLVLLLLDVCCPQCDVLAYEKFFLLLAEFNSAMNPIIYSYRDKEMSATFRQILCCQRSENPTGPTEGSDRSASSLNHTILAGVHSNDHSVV
row,Structure (SMILES),pIC50
1,Cc1nc(-c2nnn(C)c2COc2cc(C3CC3)ncn2)ccc1O[C@H]1CCC[C@H](C(=O)O)C1 [Example 275],7.82
2,Cc1nc(-c2nnn(C)c2COc2cc(OC3CC3)ccn2)ccc1O[C@H]1CCC[C@H](C(=O)O)C1 [Example 276],8.06
3,Cc1nc(-c2nnn(C)c2COc2cc(C(C)C)ncn2)ccc1O[C@H]1CCC[C@H](C(=O)O)C1 [Example 277],7.62
4,COc1cc(OCc2c(-c3ccc(O[C@H]4CCC[C@H](C(=O)O)C4)c(C)n3)nnn2C)nc(OC)n1 [Example 279],6.85
5,CCc1ccnc(OCc2c(-c3ccc(O[C@H]4CCC[C@H](C(=O)O)C4)c(C)n3)nnn2C)c1 [Example 280],7.82
6,COc1ccnc(OCc2c(-c3ccc(O[C@H]4CCC[C@H](C(=O)O)C4)c(C)n3)nnn2C)c1 [Example 281],6.44
7,Cc1nc(-c2nnn(C)c2COc2ccnc(C3CC3)n2)ccc1O[C@H]1CCC[C@H](C(=O)O)C1 [Example 282],7.43
8,Cc1nc(-c2nnn(C)c2COc2cc(C3CC3)ccn2)ccc1O[C@H]1CCC[C@H](C(=O)O)C1 [Example 283],8.06
9,CCOc1cnnc(OCc2c(-c3ccc(O[C@H]4CCC[C@H](C(=O)O)C4)c(C)n3)nnn2C)c1 [Example 284],6.83
10,COCCCOc1cc(OCc2c(-c3ccc(O[C@H]4CCC[C@H](C(=O)O)C4)c(C)n3)nnn2C)ncn1 [Example 285],7.21
11,Cc1nc(-c2nnn(C)c2COc2cc(C(C)(C)C)ncn2)ccc1O[C@H]1CCC[C@H](C(=O)O)C1 [Example 286],6.87
12,Cc1nc(-c2nnn(C)c2COc2ccnc(C(C)C)n2)ccc1O[C@H]1CCC[C@H](C(=O)O)C1 [Example 287],7.39
13,Cc1nc(-c2nnn(C)c2COc2cc(C(F)(F)F)cc(C#N)n2)ccc1O[C@H]1CCC[C@H](C(=O)O)C1 [Example 288],6.51
14,Cc1nc(-c2nnn(C)c2COc2cc(OC(C)C)ncn2)ccc1O[C@H]1CCC[C@H](C(=O)O)C1 [Example 290],7.52
15,COc1ncnc(OCc2c(-c3ccc(O[C@H]4CCC[C@H](C(=O)O)C4)c(C)n3)nnn2C)c1C [Example 291],5.48
16,Cc1nc(-c2nnn(C)c2COc2ncnc(OC3CC3)c2C)ccc1O[C@H]1CCC[C@H](C(=O)O)C1 [Example 292],6.41
17,CCc1ncnc(OCc2c(-c3ccc(O[C@H]4CCC[C@H](C(=O)O)C4)c(C)n3)nnn2C)c1C [Example 293],7.11
18,CCCc1cc(OCc2c(-c3ccc(O[C@H]4CCC[C@H](C(=O)O)C4)c(C)n3)nnn2C)ncn1 [Example 294],7.07
19,Cc1nc(-c2nnn(C)c2COc2cc(C(F)(F)F)ncn2)ccc1O[C@H]1CCC[C@H](C(=O)O)C1 [Example 295],7.68
20,Cc1nc(-c2nnn(C)c2COc2cc(C(F)F)ncn2)ccc1O[C@H]1CCC[C@H](C(=O)O)C1 [Example 296],7.80
21,[2H]C([2H])([2H])Oc1cc(OCc2c(-c3ccc(O[C@H]4CCC[C@H](C(=O)O)C4)c(C)n3)nnn2C)ncn1 [Example 297],7.80

row,Structure (SMILES),pIC50
1,Cc1nc(-c2nnn(C)c2COc2cc(N3CCCC3)ncn2)ccc1O[C@H]1CCC[C@H](C(=O)O)C1 [Example 298],6.92
2,COCc1cc(OCc2c(-c3ccc(O[C@H]4CCC[C@H](C(=O)O)C4)c(C)n3)nnn2C)ncn1 [Example 299],7.17
3,CCc1cncc(OCc2c(-c3ccc(O[C@H]4CCC[C@H](C(=O)O)C4)c(C)n3)nnn2C)n1 [Example 300],7.51
4,CCc1ccnc(OCc2c(-c3ccc(O[C@H]4CCC[C@H](C(=O)O)C4)c(C)n3)nnn2C)n1 [Example 301],8.10
5,Cc1nc(-c2nnn(C)c2COc2nccc(C3CC3)n2)ccc1O[C@H]1CCC[C@H](C(=O)O)C1 [Example 302],8.12
6,Cc1nc(-c2nnn(C)c2COc2cc(NC3CC3)ncn2)ccc1O[C@H]1CCC[C@H](C(=O)O)C1 [Example 303],7.19
7,Cc1nc(-c2nnn(C)c2COc2cc(Cl)ncn2)ccc1O[C@H]1CCC[C@H](C(=O)O)C1 [Example 304],7.18
8,Cc1nc(-c2nnn(C)c2COc2nccc(C(F)(F)F)n2)ccc1O[C@H]1CCC[C@H](C(=O)O)C1 [Example 305],7.96
9,CCc1nccc(OCc2c(-c3ccc(O[C@H]4CCC[C@H](C(=O)O)C4)c(C)n3)nnn2C)n1 [Example 306],7.44
10,COc1cncc(OCc2c(-c3ccc(O[C@H]4CCC[C@H](C(=O)O)C4)c(C)n3)nnn2C)n1 [Example 307],5.52
11,Cc1nc(-c2nnn(C)c2COc2ccnc(C(F)F)c2)ccc1O[C@H]1CCC[C@H](C(=O)O)C1 [Example 308],7.22
12,COc1cncc(OCc2c(-c3ccc(O[C@H]4CCC[C@H](C(=O)O)C4)c(C)n3)nnn2C)c1 [Example 309],5.49
13,Cc1nc(-c2nnn(C)c2COc2nccc(C(F)F)n2)ccc1O[C@H]1CCC[C@H](C(=O)O)C1 [Example 310],7.77
14,CCc1ncnc(OCc2c(-c3ccc(O[C@H]4CCC[C@H](C(=O)O)C4)c(C)n3)nnn2C)n1 [Example 311],7.36
15,Cc1nc(-c2nnn(C)c2CNc2cc(C(F)(F)F)ncn2)ccc1O[C@H]1CCC[C@H](C(=O)O)C1 [Example 312],6.86
16,Cc1nc(-c2nnn(C)c2COc2cc(-c3ccc(F)cc3)ncn2)ccc1O[C@H]1CCC[C@H](C(=O)O)C1 [Example 313],7.39
17,Cc1nc(-c2nnn(C)c2COc2cc(-n3cnnc3C)ncn2)ccc1O[C@H]1CCC[C@H](C(=O)O)C1 [Example 314],6.38
18,Cc1nc(-c2nnn(C)c2COc2cc(C(F)F)ccn2)ccc1O[C@H]1CCC[C@H](C(=O)O)C1 [Example 315],7.66
19,Cc1nc(-c2nnn(C)c2COc2nccc(-c3cnccn3)n2)ccc1O[C@H]1CCC[C@H](C(=O)O)C1 [Example 316],6.58
20,Cc1nc(-c2nnn(C)c2COc2nccc(-c3ccccn3)n2)ccc1O[C@H]1CCC[C@H](C(=O)O)C1 [Example 317],7.14
21,CCc1cc(NCc2c(-c3ccc(O[C@H]4CCC[C@H](C(=O)O)C4)c(C)n3)nnn2C)ncn1 [Example 318],6.80

row,Structure (SMILES),pIC50
1,Cc1nc(-c2nnn(C)c2CNc2nccc(COC(C)C)n2)ccc1O[C@H]1CCC[C@H](C(=O)O)C1 [Example 319],7.24
2,Cc1nc(-c2nnn(C)c2COc2nccc(COC(C)C)n2)ccc1O[C@H]1CCC[C@H](C(=O)O)C1 [Example 320],7.05
3,Cc1nc(-c2nnn(C)c2COc2nccc(COC3CC3)n2)ccc1O[C@H]1CCC[C@H](C(=O)O)C1 [Example 321],7.43
4,Cc1nc(-c2nnn(C)c2CNc2nccc(COC3CC3)n2)ccc1O[C@H]1CCC[C@H](C(=O)O)C1 [Example 322],7.36
5,Cc1nc(-c2nnn(C)c2COc2cc(COC3CC3)ccn2)ccc1O[C@H]1CCC[C@H](C(=O)O)C1 [Example 323],7.15
6,CCCOCc1ccnc(NCc2c(-c3ccc(O[C@H]4CCC[C@H](C(=O)O)C4)c(C)n3)nnn2C)n1 [Example 324],7.38
7,COCc1ccnc(OCc2c(-c3ccc(O[C@H]4CCC[C@H](C(=O)O)C4)c(C)n3)nnn2C)c1 [Example 325],7.60
8,Cc1nc(-c2nnn(C)c2CNc2nccc(-n3cccn3)n2)ccc1O[C@H]1CCC[C@H](C(=O)O)C1 [Example 326],7.00
9,Cc1nc(-c2nnn(C)c2COc2nccc(-n3cccn3)n2)ccc1O[C@H]1CCC[C@H](C(=O)O)C1 [Example 327],6.47
10,"Cc1nc(-c2nnn(C)c2CN(C)c2ncnc(C(C)C)n2)ccc1O[C@H]1CCC[C@H](C(=O)O)C1 [Example 328, (1S,3S)-3-((6-(5-(((4-Isopropyl-1,3,5-triazin-2-yl)(methyl)amino)methyl)-1-methyl-1H-1,2,3-triazol-4-yl)-2-methylpyridin-3-yl)oxy)cyclohexane-1l-carboxylic acid]",6.68
11,"Cc1nc(-c2nnn(C)c2CNc2cc(OCC(C)C)ncn2)ccc1O[C@H]1CCC[C@H](C(=O)O)C1 [Example 329, (1S,3S)-3-((6-(5-(((6-Isobutoxypyrimidin-4-yl)amino)methyl)-1-methyl-1H-1,2,3-triazol-4-yl)-2-methylpyridin-3-yl)oxy)cyclohexane-1-carboxylicacid]",7.09
12,"Cc1nc(-c2nnn(C)c2COc2nccc(-c3ccccc3)n2)ccc1O[C@H]1CCC[C@H](C(=O)O)C1 [Example 330, (1S,3S)-3-((2-Methyl-6-(1-methyl-5-(((4-phenylpyrimidin-2-yl)oxy)methyl)-1H-1,2,3-triazol-4-yl)pyridin-3-yl)oxy)cyclohexane-1-carboxylic acid]",7.48
13,Cc1nc(-c2nnn(C)c2COc2nccc(C(C)(C)C)n2)ccc1O[C@H]1CCC[C@H](C(=O)O)C1 [Example 332],7.54
14,Cc1nc(-c2nnn(C)c2CNc2ncnc(C(C)C)n2)ccc1O[C@H]1CCC[C@H](C(=O)O)C1 [Example 333],7.37
15,Cc1nc(-c2nnn(C)c2CNc2nccc(OCC3CC3)n2)ccc1O[C@H]1CCC[C@H](C(=O)O)C1 [Example 334],7.72
16,Cc1nc(-c2nnn(C)c2CNc2nccc(OCC3(C)CC3)n2)ccc1O[C@H]1CCC[C@H](C(=O)O)C1 [Example 335],7.74
17,Cn1nnc(-c2ccc(O[C@H]3CCC[C@H](C(=O)O)C3)cn2)c1CNc1nccc(OCC2(C)CC2)n1 [Example 336],7.55
18,Cc1nc(-c2nnn(C)c2CNc2nccc(OCC3(F)CC3)n2)ccc1O[C@H]1CCC[C@H](C(=O)O)C1 [Example 337],6.95
19,Cc1nc(-c2nnn(C)c2COc2nccc(N3CCCC3)n2)ccc1O[C@H]1CCC[C@H](C(=O)O)C1 [Example 338],7.68
20,Cc1nc(-c2nnn(C)c2COc2cncc(C(F)(F)F)n2)ccc1O[C@H]1CCC[C@H](C(=O)O)C1 [Example 339],7.00
21,Cc1nc(-c2nnn(C)c2COc2cncc(Oc3ccccc3)n2)ccc1O[C@H]1CCC[C@H](C(=O)O)C1 [Example 340],7.60
